Measurements: patent publication US8137707B2, “Method of obtaining an active ingredient increasing cutaneous cell and tissue longevity, active ingredients and compositions” (Societe Industrielle Limousine d'Application Biologique, …, priority 2006, dated 2012)

Test system: rat-tail collagen
Test: Glycation of collagen induced by glycoaldehyde, fluorescence of glycation products
Assay type: biochemical
Conditions: 32 μl of aminoguanidine at 3.39 M, 14 days at 37° C.
Procedure: The study is carried out according to the operating protocol that follows.
On D0, samples to be tested are prepared in sterile hemolysis tubes: • a non-glycated collagen reference, containing • 1 ml of 3 mg/ml rat-tail collagen, • a glycated collagen reference, containing • 1 ml of 3 mg/ml rat-tail collagen, and • 0.3 ml of a glycoaldehyde solution at 143 mM, inducing the glycation reaction, • a positive reference, containing • 1 ml of 3 mg/ml of rat-tail collagen, • 0.3 ml of a solution of glycoaldehyde at 143 mM, inducing the glycation reaction, and • 32 μl of aminoguanidine at 3.39 M, inhibiting the glycation reaction. • product tests, containing • 1 ml of 3 mg/ml rat-tail collagen, • 0.3 ml of a solution of glycoaldehyde at 143 mM, inducing the glycation reaction, and • the active principle according to the invention at 1%, 2.5% and 5%.
The samples are incubated at 37° C. protected from light for 14 days.
On D14, the fluorescence emitted by the glycation products formed is measured with the aid of a spectrofluorimeter.

N=C(N)NN [Positive reference, aminoguanidine]
Fluorescence Value (glycated collagen reference 449): 189
Effectiveness (%) (versus glycated collagen reference): −58%
